Laboratory results: ChEMBL document CHEMBL5678804 (Cancer Cell, 2011)
Active and inactive are the calls of the source. The rule behind the calls is not given here.

Tests used:
BaF3 [1] = experiment: Antileukemic activity against mouse BaF3 cells harbouring BCR-ABL1 T315I mutant non-transduced with 5-FU treated bone marrow xenografted in Balb/c mouse assessed as reduction in pleural effusions at 60 mg/kg, po administered twice daily; type: functional, organism-based
BaF3 [2] = experiment: Antileukemic activity against mouse BaF3 cells harbouring BCR-ABL1 T315I mutant non-transduced with 5-FU treated bone marrow xenografted in Balb/c mouse assessed as alteration in B-lymphoid leukemia at 60 mg/kg, po administered twice daily; type: functional, organism-based
[3] = target: Platelet-derived growth factor receptor alpha (Homo sapiens, UniProt P16234); experiment: Inhibition of human wild type PDGFR alpha using Poly(Ala,Glu,Lys,Tyr)6:2:5:1 as substrate preincubated for 2 hrs followed by ATP addition and measured every 2 mins for […] by spectrophotometric analysis
[4] = target: Tyrosine-protein kinase ITK/TSK (Homo sapiens, UniProt Q08881); experiment: Inhibition of human wild type ITK using PolyEY as substrate preincubated for 2 hrs followed by ATP addition and measured every 2 mins for […] by spectrophotometric analysis
[5] = target: Tyrosine-protein kinase JAK1 (Homo sapiens, UniProt P23458); experiment: Inhibition of human wild type JAK1 using RBER-IRStide as substrate preincubated for 2 hrs followed by ATP addition and measured every 2 mins for […] by spectrophotometric analysis
[6] = target: Mitogen-activated protein kinase 11 (Homo sapiens, UniProt Q15759); experiment: Inhibition of human wild type p38 beta using ATF2 as substrate preincubated for 2 hrs followed by ATP addition and measured every 2 mins for […] by spectrophotometric analysis
[7] = Inhibition of human wild type PDGFR beta using Poly(Ala,Glu,Lys,Tyr)6:2:5:1 as substrate preincubated for 2 hrs followed by ATP addition and measured every 2 mins for […] by spectrophotometric analysis
[8] = target: RAC-alpha serine/threonine-protein kinase (Homo sapiens, UniProt P31749); experiment: Inhibition of human wild type AKT1 using RBER-GSK3([…] to […]) as substrate preincubated for 2 hrs followed by ATP addition and measured every 2 mins for […] by spectrophotometric analysis
Aurora kinase A = Aurora kinase A (Homo sapiens, UniProt O14965); experiment: Inhibition of human wild type AuroraA using bio-4xCHKT as substrate preincubated for 2 hrs followed by ATP addition and measured every 2 mins for […] by spectrophotometric analysis
Sequence of Aurora kinase A (O14965 whole entry): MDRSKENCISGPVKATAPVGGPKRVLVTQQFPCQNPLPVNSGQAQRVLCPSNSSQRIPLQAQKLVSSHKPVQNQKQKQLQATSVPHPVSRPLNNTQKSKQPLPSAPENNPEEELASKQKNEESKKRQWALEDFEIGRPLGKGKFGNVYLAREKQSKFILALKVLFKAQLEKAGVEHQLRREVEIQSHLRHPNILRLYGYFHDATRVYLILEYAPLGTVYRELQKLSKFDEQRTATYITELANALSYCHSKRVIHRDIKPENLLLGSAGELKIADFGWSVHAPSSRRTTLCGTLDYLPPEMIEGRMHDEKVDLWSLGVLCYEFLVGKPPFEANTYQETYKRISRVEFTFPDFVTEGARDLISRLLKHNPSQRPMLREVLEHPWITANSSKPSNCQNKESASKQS

Aurora kinase B = Aurora kinase B (Homo sapiens, UniProt Q96GD4); experiment: Inhibition of human wild type AuroraB using bio-4xCHKT as substrate preincubated for 2 hrs followed by ATP addition and measured every 2 mins for […] by spectrophotometric analysis
Aurora kinase C = Aurora kinase C (Homo sapiens, UniProt Q9UQB9); experiment: Inhibition of human wild type AuroraC using bio-4xCHKT as substrate preincubated for 2 hrs followed by ATP addition and measured every 2 mins for […] by spectrophotometric analysis
[9] = Inhibition of human wild type CDK2/A using RBER-CHKtide as substrate preincubated for 2 hrs followed by ATP addition and measured every 2 mins for […] by spectrophotometric analysis
[10] = target: Mitogen-activated protein kinase kinase kinase 8 (Homo sapiens, UniProt P41279); experiment: Inhibition of human wild type COT1 using RBER-CHKtide as substrate preincubated for 2 hrs followed by ATP addition and measured every 2 mins for […] by spectrophotometric analysis
Sequence of Mitogen-activated protein kinase kinase kinase 8 (P41279 whole entry): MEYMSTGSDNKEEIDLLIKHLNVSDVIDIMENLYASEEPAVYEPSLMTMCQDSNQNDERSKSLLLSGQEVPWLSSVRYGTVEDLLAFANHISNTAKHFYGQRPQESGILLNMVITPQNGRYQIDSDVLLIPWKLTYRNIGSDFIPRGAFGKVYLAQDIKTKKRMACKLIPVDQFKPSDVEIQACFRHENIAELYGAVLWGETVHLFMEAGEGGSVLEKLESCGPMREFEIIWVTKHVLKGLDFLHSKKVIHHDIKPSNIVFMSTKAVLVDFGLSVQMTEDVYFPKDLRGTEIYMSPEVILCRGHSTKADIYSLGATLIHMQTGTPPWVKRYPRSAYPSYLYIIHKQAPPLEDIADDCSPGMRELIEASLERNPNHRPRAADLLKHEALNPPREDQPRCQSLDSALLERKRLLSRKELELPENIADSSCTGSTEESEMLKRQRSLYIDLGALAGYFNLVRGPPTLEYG

[11] = target: Death-associated protein kinase 1 (Homo sapiens, UniProt P53355); experiment: Inhibition of human wild type DAPK1 using RBER-GSK3([…] to […]) as substrate preincubated for 2 hrs followed by ATP addition and measured every 2 mins for […] by spectrophotometric analysis
[12] = target: Serine/threonine-protein kinase 17A (Homo sapiens, UniProt Q9UEE5); experiment: Inhibition of human wild type DRAK1 using RB-CTF as substrate preincubated for 2 hrs followed by ATP addition and measured every 2 mins for […] by spectrophotometric analysis
Sequence of Serine/threonine-protein kinase 17A (Q9UEE5 whole entry): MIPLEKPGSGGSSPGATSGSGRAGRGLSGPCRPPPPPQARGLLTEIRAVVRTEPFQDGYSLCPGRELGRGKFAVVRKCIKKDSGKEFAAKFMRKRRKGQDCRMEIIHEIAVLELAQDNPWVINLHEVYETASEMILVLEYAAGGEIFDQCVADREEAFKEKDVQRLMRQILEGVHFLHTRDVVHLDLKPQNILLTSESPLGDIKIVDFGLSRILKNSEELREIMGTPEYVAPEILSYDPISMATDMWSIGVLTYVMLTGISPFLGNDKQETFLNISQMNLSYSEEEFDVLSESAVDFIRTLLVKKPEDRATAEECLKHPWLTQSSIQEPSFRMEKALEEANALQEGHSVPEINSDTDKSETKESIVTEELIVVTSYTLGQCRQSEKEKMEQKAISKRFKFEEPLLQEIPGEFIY

[13] = target: Mitogen-activated protein kinase kinase kinase 10 (Homo sapiens, UniProt Q02779); experiment: Inhibition of human wild type MLK2 using Histon H2B as substrate preincubated for 2 hrs followed by ATP addition and measured every 2 mins for […] by spectrophotometric analysis
Myosin-IIIb = Myosin-IIIb (Homo sapiens, UniProt Q8WXR4); experiment: Inhibition of human MYO3B preincubated for 2 hrs followed by ATP addition and measured every 2 mins for […] by spectrophotometric analysis
[14] = target: Serine/threonine-protein kinase D2 (Homo sapiens, UniProt Q9BZL6); experiment: Inhibition of human wild type PKD2 using RBER-CHKtide as substrate preincubated for 2 hrs followed by ATP addition and measured every 2 mins for […] by spectrophotometric analysis
[15] = target: cGMP-dependent protein kinase 1 (Homo sapiens, UniProt Q13976); experiment: Inhibition of human wild type PKG1 alpha using 3xChocktide-PKC(19to 31) as substrate preincubated for 2 hrs followed by ATP addition and measured every 2 mins for […] by spectrophotometric analysis
[16] = target: cGMP-dependent protein kinase 2 (Homo sapiens, UniProt Q13237); experiment: Inhibition of human wild type PKG2 using RBER-GSK3(14to 27) as substrate preincubated for 2 hrs followed by ATP addition and measured every 2 mins for […] by spectrophotometric analysis
Sequence of cGMP-dependent protein kinase 2 (Q13237 whole entry): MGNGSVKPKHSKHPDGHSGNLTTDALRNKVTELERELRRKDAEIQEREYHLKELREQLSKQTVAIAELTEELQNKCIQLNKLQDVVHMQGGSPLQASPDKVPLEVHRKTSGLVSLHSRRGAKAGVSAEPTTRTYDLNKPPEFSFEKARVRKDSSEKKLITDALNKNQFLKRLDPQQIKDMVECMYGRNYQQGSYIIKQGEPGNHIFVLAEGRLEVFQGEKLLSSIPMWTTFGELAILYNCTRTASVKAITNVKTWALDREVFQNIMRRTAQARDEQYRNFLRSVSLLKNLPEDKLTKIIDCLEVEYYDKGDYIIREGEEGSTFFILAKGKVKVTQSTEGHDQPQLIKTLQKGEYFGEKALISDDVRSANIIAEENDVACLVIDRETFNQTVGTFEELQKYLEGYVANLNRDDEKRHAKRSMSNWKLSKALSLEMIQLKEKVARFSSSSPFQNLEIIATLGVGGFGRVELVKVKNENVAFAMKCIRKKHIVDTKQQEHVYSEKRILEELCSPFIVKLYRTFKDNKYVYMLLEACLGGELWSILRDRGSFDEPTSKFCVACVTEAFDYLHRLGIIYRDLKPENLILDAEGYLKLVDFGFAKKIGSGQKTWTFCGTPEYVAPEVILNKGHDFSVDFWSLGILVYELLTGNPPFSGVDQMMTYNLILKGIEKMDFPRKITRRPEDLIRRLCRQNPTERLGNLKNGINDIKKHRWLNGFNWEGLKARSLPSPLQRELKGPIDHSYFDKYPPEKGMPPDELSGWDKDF

[17] = target: Serine/threonine-protein kinase N1 (Homo sapiens, UniProt Q16512); experiment: Inhibition of human wild type PKN1 using RBER-CHKtide as substrate preincubated for 2 hrs followed by ATP addition and measured every 2 mins for […] by spectrophotometric analysis
Sequence of Serine/threonine-protein kinase N1 (Q16512 whole entry): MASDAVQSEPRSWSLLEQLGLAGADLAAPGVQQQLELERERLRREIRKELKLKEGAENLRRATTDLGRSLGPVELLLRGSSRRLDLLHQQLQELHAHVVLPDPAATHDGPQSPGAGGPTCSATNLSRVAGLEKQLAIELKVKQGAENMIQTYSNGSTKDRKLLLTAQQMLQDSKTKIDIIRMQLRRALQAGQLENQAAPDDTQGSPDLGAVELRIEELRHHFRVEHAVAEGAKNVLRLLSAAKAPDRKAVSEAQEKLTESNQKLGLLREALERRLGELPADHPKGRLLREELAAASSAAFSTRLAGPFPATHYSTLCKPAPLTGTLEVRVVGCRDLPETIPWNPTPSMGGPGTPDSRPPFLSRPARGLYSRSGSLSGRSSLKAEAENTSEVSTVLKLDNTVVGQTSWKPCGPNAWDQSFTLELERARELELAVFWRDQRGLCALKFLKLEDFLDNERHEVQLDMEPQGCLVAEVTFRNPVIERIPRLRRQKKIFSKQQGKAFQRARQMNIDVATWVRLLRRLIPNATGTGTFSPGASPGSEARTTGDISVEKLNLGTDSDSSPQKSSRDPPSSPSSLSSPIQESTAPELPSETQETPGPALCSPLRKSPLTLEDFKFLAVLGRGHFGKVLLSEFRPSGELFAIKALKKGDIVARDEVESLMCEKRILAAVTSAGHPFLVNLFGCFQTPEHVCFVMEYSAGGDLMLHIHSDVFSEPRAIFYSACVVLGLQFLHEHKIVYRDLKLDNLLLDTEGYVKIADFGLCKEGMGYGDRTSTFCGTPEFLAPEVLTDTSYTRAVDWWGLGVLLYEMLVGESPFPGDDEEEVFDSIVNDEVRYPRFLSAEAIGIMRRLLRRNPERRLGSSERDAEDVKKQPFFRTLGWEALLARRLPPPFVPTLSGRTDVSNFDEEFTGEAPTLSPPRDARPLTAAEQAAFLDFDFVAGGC

[18] = target: Serine/threonine-protein kinase PLK1 (Homo sapiens, UniProt P53350); experiment: Inhibition of human wild type PLK1 using RBER-CHKtide as substrate preincubated for 2 hrs followed by ATP addition and measured every 2 mins for […] by spectrophotometric analysis
Sequence of Serine/threonine-protein kinase PLK1 (P53350 whole entry): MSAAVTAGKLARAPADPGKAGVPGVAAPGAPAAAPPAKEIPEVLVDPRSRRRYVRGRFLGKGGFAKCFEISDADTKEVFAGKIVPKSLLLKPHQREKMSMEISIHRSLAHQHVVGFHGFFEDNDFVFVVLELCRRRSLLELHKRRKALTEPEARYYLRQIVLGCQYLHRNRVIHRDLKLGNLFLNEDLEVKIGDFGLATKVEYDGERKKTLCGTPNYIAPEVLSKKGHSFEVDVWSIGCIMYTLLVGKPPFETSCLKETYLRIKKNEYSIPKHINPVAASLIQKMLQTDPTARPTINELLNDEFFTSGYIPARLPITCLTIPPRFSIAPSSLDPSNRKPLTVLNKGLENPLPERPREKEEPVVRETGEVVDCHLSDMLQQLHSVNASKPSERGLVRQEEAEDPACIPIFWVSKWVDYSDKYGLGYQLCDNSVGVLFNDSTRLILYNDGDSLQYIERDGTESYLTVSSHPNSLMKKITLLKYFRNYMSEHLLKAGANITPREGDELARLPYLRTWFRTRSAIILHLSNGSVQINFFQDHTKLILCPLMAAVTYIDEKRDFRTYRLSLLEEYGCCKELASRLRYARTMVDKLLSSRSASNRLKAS

[19] = target: cAMP-dependent protein kinase catalytic subunit PRKX (Homo sapiens, UniProt P51817); experiment: Inhibition of human wild type PRKX using RBER-GSK3([…] to […]) as substrate preincubated for 2 hrs followed by ATP addition and measured every 2 mins for […] by spectrophotometric analysis
Sequence of cAMP-dependent protein kinase catalytic subunit PRKX (P51817 whole entry): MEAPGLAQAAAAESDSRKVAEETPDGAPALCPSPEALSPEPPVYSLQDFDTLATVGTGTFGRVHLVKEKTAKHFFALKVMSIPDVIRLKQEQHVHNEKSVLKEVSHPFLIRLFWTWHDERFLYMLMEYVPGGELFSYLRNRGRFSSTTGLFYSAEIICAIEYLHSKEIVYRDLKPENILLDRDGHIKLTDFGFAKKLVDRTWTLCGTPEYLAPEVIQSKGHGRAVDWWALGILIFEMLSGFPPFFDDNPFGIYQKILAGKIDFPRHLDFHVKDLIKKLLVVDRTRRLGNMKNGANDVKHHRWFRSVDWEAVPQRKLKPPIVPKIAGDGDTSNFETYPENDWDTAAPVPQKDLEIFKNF

[20] = target: Serine/threonine-protein kinase Sgk1 (Homo sapiens, UniProt O00141); experiment: Inhibition of human wild type SGK1 using RBER-GSK3([…] to […]) as substrate preincubated for 2 hrs followed by ATP addition and measured every 2 mins for […] by spectrophotometric analysis
[21] = target: Serine/threonine-protein kinase TAO1 (Homo sapiens, UniProt Q7L7X3); experiment: Inhibition of human TAOK1 preincubated for 2 hrs followed by ATP addition and measured every 2 mins for […] by spectrophotometric analysis
Sequence of Serine/threonine-protein kinase TAO1 (Q7L7X3 whole entry): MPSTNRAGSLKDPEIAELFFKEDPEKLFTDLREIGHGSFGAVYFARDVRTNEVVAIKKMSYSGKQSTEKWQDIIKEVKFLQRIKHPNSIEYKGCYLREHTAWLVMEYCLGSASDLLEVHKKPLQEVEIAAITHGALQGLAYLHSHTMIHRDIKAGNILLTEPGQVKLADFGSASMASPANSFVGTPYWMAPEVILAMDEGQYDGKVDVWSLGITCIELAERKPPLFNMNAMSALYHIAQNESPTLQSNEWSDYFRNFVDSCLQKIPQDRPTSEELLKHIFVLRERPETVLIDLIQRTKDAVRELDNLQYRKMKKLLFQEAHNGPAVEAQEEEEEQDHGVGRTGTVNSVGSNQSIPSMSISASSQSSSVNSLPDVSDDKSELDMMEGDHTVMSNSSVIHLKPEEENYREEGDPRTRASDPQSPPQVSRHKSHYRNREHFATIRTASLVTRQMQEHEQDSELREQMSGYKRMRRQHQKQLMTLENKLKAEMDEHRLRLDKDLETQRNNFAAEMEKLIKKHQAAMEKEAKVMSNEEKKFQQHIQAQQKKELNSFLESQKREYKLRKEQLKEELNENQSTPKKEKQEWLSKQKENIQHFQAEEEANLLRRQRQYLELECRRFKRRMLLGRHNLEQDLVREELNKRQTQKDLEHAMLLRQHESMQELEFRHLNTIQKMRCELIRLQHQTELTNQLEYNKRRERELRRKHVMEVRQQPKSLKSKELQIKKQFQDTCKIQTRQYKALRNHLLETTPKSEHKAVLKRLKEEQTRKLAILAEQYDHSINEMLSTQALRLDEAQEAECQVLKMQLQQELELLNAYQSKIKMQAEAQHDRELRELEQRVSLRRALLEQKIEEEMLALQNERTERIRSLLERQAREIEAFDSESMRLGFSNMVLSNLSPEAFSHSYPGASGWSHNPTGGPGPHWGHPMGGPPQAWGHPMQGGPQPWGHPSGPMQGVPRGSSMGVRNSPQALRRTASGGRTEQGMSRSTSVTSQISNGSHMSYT

TGF-beta receptor type-2 = TGF-beta receptor type-2 (Homo sapiens, UniProt P37173); experiment: Inhibition of human wild type TGFbetaR2 using RB-S6P as substrate preincubated for 2 hrs followed by ATP addition and measured every 2 mins for […] by spectrophotometric analysis
[22] = target: Tyrosine-protein kinase ABL1 (Homo sapiens, UniProt P00519); conditions: Sf9, time 2.0 hrs
[23] = system: Tyrosine-protein kinase ABL1 (Homo sapiens), P00519 [T315I]; conditions: time 2.0 hrs

SMILES: CNC(=O)c1cc(Oc2ccc(NC(=O)Nc3cc(C(C)(C)C)nn3-c3ccc4ncccc4c3)c(F)c2)ccn1 [REBASTINIB]
- Activity (BaF3 [1]): Active
- Activity (BaF3 [2]): Active
- IC50 [3]: 70 nM
- IC50 [4]: 270 nM
- IC50 [5]: 850 nM
- IC50 [6]: 790 nM
- IC50 [7]: 113 nM
- IC50 [8]: > 1000 nM
- IC50 (Aurora kinase A): > 5000 nM
- IC50 (Aurora kinase B): > 1000 nM
- IC50 (Aurora kinase C): > 1000 nM
- IC50 [9]: > 1000 nM
- IC50 [10]: > 1000 nM
- IC50 [11]: > 1000 nM
- IC50 [12]: > 1000 nM
- IC50 [13]: > 1000 nM
- IC50 (Myosin-IIIb): > 1000 nM
- IC50 [14]: > 1000 nM
- IC50 [15]: > 1000 nM
- IC50 [16]: > 1000 nM
- IC50 [17]: > 1000 nM
- IC50 [18]: > 1000 nM
- IC50 [19]: > 1000 nM
- IC50 [20]: > 1000 nM
- IC50 [21]: > 1000 nM
- IC50 (TGF-beta receptor type-2): > 1000 nM
- Kdiss [22]: 3.33e-05 s⁻¹
- T1/2 [23]: 8.97 h
